Experimental data: the supplement of paper PMC10307832

Columns and labels:
XMD8-85 + Foretinib = compound: CN1CCN(CC1)C2=CC(=C(C=C2)NC3=NC=C4C(=N3)N(C5=CC=CC=C5C(=O)N4C)C)OC [XMD8-85] + COc1cc2c(Oc3ccc(NC(=O)C4(C(=O)Nc5ccc(F)cc5)CC4)cc3F)ccnc2cc1OCCCN1CCOCC1 [Foretinib] (partner 0.25 µM); test: relative viability (nuclei count vs DMSO), 5 days (fraction); higher = more cells survive
Outline: (§1)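 Relative viability is defined as nuclei in treated wells over nuclei in vehicle wells. Duplicate plates were run and medians reported. Lung cancer cell lines in 1536-well plates were dosed by pin tool one day after seeding, with one drug or with a fixed anchor-drug dose plus five library-drug doses (not always all listed) in √10 steps, and nuclei were counted after 5 days.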

4EGI-1 + Tozasertib = compound: O=C(O)C(Cc1ccccc1[N+](=O)[O-])=NNc1nc(-c2ccc(Cl)c(Cl)c2)cs1 (mixture of isomers) [4EGI-1] + Cc1cc(Nc2cc(N3CCN(C)CC3)nc(Sc3ccc(NC(=O)C4CC4)cc3)n2)n[nH]1 [Tozasertib] (partner 0.1 µM); test: as above
Outline: as §1

Cell Line	relative viability (XMD8-85 + Foretinib; first compound 0.08 µM)	relative viability (XMD8-85 + Foretinib; first compound 0.253 µM)	relative viability (XMD8-85 + Foretinib; first compound 0.8 µM)	relative viability (XMD8-85 + Foretinib; first compound 2.53 µM)	relative viability (XMD8-85 + Foretinib; first compound 8 µM)	relative viability (4EGI-1 + Tozasertib; first compound 0.5 µM)	relative viability (4EGI-1 + Tozasertib; first compound 1.581 µM)	relative viability (4EGI-1 + Tozasertib; first compound 5 µM)	relative viability (4EGI-1 + Tozasertib; first compound 15.81 µM)	relative viability (4EGI-1 + Tozasertib; first compound 50 µM)
201T	1.13	1.24	1.13	0.733	0.703	1.01	0.91	0.905	0.771	0.475
A549	1.02	0.869	1.11	1.05	0.913	–	–	–	–	–
A-427	1.22	1.03	1.12	0.889	0.828	0.192	0.195	0.189	0.205	0.0979
ABC-1	0.871	0.9	1.41	0.947	0.578	0.201	0.15	0.21	0.206	0.172
BEN	0.729	0.543	0.509	0.438	0.304	0.631	0.626	0.53	0.475	0.461
CAL-12T	1.18	1.17	1.24	1.06	0.346	0.354	0.264	0.315	0.315	0.21
COR-L23	1.02	1.05	1.06	0.998	0.773	0.215	0.145	0.189	0.157	0.0963
COR-L 105	1.21	1.14	1.08	0.672	0.387	0.369	0.343	0.343	0.286	0.366
Calu-6	0.858	0.948	0.879	0.804	0.674	–	–	–	–	–
ChaGo-K-1	0.823	1.01	0.93	0.867	0.774	0.209	0.208	0.212	0.209	0.208
EBC-1	0.104	0.0951	0.112	0.0978	0.0972	–	–	–	–	–
EKVX	0.716	0.864	0.836	0.971	0.664	0.434	0.359	0.433	0.368	0.371
EMC-BAC-2	1.1	1.05	0.975	0.965	0.754	0.324	0.262	0.329	0.312	0.26
EPLC-272H	0.619	0.717	0.751	0.47	0.436	0.288	–	0.297	0.172	0.193
H3255	1.03	0.917	0.892	0.931	0.627	0.789	0.43	0.726	0.571	0.551
HARA	1.09	0.701	0.97	0.782	0.583	0.129	0.121	0.101	0.105	0.0717
HCC-15	1.05	1.01	0.963	1.05	0.766	0.331	0.377	0.5	0.308	0.155
HCC-44	–	–	–	–	–	0.971	–	0.946	0.384	0.282

Cell Line	relative viability (XMD8-85 + Foretinib; first compound 0.08 µM)	relative viability (XMD8-85 + Foretinib; first compound 0.253 µM)	relative viability (XMD8-85 + Foretinib; first compound 0.8 µM)	relative viability (XMD8-85 + Foretinib; first compound 2.53 µM)	relative viability (XMD8-85 + Foretinib; first compound 8 µM)	relative viability (4EGI-1 + Tozasertib; first compound 0.5 µM)	relative viability (4EGI-1 + Tozasertib; first compound 1.581 µM)	relative viability (4EGI-1 + Tozasertib; first compound 5 µM)	relative viability (4EGI-1 + Tozasertib; first compound 15.81 µM)	relative viability (4EGI-1 + Tozasertib; first compound 50 µM)
HCC-78	0.539	0.572	0.519	0.537	0.531	0.538	–	0.336	1.56	0.289
HCC-366	0.991	1.04	0.988	0.937	0.748	0.131	0.0938	0.0608	0.0943	0.0321
HCC-827	1.03	1.1	0.948	1.13	1.11	0.428	0.422	0.415	–	0.358
HOP-62	1.14	1.13	0.971	0.946	0.466	0.385	0.257	0.403	0.34	0.211
IA-LM	1.07	1.11	1.24	0.964	0.292	–	–	–	–	–
LC-2-ad	0.866	0.976	0.995	0.785	0.607	0.415	–	0.483	0.347	0.232
LCLC-97TM1	0.934	0.95	0.959	1.01	1	0.231	0.184	0.215	0.219	0.102
LCLC-103H	0.842	0.919	0.692	0.857	0.554	0.557	0.479	0.537	0.434	0.394
LK-2	–	1.05	1.01	0.554	0.389	0.193	–	0.199	0.151	0.151
LOU-NH91	–	0.966	0.863	1.02	0.843	0.671	–	0.666	0.432	0.69
LU99A	0.768	–	0.761	0.854	0.597	0.258	0.227	0.298	0.28	0.208
LXF-289	0.887	0.997	0.993	0.977	0.812	0.203	0.22	0.204	0.151	0.168
NCI-H23	1.08	0.778	1.08	0.77	0.866	0.393	–	0.471	0.382	0.214
NCI-H322M	0.733	0.856	1.01	0.8	0.631	0.457	–	0.509	0.469	0.29
NCI-H358	0.656	0.774	0.84	0.673	0.422	0.102	0.117	0.102	0.102	0.0781
NCI-H441	1.11	0.971	1.15	1.13	0.644	0.688	0.538	0.574	0.541	0.284
NCI-H460	1.07	1.09	1.05	0.948	0.78	0.538	–	0.45	0.144	0.314
NCI-H520	0.798	0.729	0.895	0.741	0.484	0.47	0.496	0.499	0.385	0.371
